According to ChEMBL document CHEMBL1201862, “PubChem BioAssay data set” (2004):
The source made the active and inactive calls.

Tests used:
[1] = biological target: T1, Tyrosine-protein phosphatase non-receptor type 11 (Homo sapiens, UniProt Q06124); test: PTPN11 enzyme inhibitors – biochemical, selectivity assay for STEP inhibitor project, dose response (AID 602367); assay type: functional; conditions: read-out: IC50_Mean
T1 sequence (Q06124 whole entry): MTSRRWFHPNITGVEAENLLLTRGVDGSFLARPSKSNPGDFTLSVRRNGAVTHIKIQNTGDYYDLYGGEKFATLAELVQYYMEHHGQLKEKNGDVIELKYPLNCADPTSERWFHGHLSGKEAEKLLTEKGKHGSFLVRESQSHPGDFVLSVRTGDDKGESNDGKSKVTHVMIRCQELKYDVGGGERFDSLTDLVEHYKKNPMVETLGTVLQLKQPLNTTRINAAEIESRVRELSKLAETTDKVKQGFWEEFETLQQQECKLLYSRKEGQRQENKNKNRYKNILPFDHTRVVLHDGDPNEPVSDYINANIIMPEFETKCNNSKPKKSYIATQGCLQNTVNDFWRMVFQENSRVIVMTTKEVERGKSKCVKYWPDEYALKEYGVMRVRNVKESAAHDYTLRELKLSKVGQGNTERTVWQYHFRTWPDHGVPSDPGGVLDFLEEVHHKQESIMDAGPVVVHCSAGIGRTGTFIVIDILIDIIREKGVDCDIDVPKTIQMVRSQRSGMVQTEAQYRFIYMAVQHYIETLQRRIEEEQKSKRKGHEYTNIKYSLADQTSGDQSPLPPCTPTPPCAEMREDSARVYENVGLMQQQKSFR

[2] = biological target: Dual specificity protein phosphatase 3 (Homo sapiens, UniProt P51452); test: VHR phosphatase inhibition, dose response, selectivity assay for STEP inhibitor project, biochemical (AID 602374); assay type: functional; conditions: read-out: IC50_Mean
Sequence of Dual specificity protein phosphatase 3 (P51452 whole entry): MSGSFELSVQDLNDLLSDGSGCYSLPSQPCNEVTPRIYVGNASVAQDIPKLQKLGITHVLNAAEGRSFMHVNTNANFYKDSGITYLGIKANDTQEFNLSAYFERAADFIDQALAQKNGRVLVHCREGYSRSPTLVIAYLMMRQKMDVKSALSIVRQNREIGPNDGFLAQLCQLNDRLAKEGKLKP

[3] = biological target: T2, Tyrosine-protein phosphatase non-receptor type 5 (Homo sapiens, UniProt P54829); test: PTPN5 enzyme inhibition – biochemical, fluorescence intensity, uHTS hits, confirmation (AID 602372); assay type: functional; conditions: read-out: IC50_Mean
T2 sequence (P54829 whole entry): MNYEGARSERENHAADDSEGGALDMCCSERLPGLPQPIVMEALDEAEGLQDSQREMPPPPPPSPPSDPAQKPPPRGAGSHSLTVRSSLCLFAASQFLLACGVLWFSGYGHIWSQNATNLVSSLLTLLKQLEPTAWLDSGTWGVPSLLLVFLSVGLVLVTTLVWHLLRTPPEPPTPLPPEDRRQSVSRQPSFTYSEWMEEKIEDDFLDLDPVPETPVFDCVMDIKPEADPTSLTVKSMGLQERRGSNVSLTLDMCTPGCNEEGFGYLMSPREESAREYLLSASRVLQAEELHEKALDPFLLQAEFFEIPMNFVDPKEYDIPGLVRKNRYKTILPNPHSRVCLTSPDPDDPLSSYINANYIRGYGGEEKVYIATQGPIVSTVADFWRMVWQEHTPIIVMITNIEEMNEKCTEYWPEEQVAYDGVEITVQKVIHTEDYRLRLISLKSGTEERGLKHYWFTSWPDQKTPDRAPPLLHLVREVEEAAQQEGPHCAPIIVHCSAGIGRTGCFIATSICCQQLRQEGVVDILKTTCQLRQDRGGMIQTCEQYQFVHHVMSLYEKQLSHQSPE

[4] = biological target: Nuclear receptor subfamily 5 group A member 2 (Homo sapiens, UniProt O00482); assay type: functional, cell-based;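 also: HEK293T cells transfected with LRH-1 and a StAR promoter luciferase reporter; potency for inhibitors that lower LRH-1 driven reporter light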
Sequence of Nuclear receptor subfamily 5 group A member 2 (O00482 whole entry): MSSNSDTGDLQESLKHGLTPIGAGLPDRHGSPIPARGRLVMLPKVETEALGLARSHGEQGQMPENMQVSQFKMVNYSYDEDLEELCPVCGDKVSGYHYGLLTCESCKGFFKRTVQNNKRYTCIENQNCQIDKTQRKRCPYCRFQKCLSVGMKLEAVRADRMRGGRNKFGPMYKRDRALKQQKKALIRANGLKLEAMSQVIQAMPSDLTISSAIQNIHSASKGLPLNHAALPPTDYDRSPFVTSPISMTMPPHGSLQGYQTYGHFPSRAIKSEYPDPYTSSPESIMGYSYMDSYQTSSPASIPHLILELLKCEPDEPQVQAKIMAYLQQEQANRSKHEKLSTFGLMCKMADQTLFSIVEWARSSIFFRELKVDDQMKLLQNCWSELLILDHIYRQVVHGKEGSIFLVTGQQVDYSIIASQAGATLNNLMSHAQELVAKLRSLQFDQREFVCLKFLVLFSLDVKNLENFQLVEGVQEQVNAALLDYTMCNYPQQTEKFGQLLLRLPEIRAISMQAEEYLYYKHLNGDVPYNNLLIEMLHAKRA

[5] = nonselective StAR promoter luciferase inhibitors – cell-based, luminescence, luciferase reporter, counter-screen for LRH-1 inverse agonist project, dose response (AID 651969); assay type: functional
Steroidogenic factor 1 = Steroidogenic factor 1 (Homo sapiens, UniProt Q13285); test: Counterscreen for inverse agonists of the liver receptor homolog-1 (LRH-1; NR5A2): Luminescence-based cell-based high throughput dose response assay to identify inverse agonists of the Steroidogenic Factor 1 Nuclear Receptor (SF1; NR5A1).; assay type: functional
Sequence of Steroidogenic factor 1 (Q13285 whole entry): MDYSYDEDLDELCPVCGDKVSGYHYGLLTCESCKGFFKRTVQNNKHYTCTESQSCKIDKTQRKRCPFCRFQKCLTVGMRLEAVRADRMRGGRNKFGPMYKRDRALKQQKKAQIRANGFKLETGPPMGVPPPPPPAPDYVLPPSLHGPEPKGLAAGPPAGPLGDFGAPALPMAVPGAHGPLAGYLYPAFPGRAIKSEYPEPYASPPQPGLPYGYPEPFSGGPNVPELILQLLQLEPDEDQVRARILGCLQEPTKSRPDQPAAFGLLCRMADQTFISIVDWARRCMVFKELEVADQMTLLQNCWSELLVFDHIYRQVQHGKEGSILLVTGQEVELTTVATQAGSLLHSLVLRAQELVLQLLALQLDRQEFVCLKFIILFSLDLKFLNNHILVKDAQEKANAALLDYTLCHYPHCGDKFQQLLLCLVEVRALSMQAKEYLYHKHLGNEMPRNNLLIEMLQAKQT

Interleukin-8 = biological target: T3, Interleukin-8 (Homo sapiens, UniProt P10145); test: Dose Response confirmation of uHTS small molecule hits for cystic fibrosis induced NFkb Inhibitors in a PAF-induced IL8 counterscreen.; assay type: functional; conditions: read-out: IC50_Mean
T3 sequence (P10145 whole entry): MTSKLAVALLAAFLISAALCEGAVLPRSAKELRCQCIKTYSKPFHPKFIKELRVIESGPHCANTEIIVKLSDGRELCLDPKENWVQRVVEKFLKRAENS

[6] = biological target: T4, Tyrosyl-DNA phosphodiesterase 2 (Homo sapiens, UniProt O95551); test: potency against TDP2 phosphodiesterase activity – biochemical, epi absorbance, IC50, dose response (AID 743297)
T4 sequence (O95551 whole entry): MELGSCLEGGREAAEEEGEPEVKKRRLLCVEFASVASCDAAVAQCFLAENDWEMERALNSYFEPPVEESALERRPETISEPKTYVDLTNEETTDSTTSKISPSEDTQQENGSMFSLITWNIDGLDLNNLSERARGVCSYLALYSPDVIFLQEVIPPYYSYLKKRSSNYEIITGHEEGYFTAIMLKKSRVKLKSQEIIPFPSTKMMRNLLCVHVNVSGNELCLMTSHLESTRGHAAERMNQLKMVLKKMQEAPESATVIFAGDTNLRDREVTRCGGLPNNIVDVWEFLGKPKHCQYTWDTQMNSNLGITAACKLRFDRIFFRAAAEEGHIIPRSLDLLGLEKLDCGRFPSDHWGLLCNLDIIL

Genome polyprotein = Genome polyprotein (dengue virus type 2, UniProt P29990); test: flavivirus cap methylation enzyme inhibition – biochemical, confirmation dose response, primary screen (AID 588689); assay type: functional
Sequence of Genome polyprotein (P29990 2492-3391 limits assumed): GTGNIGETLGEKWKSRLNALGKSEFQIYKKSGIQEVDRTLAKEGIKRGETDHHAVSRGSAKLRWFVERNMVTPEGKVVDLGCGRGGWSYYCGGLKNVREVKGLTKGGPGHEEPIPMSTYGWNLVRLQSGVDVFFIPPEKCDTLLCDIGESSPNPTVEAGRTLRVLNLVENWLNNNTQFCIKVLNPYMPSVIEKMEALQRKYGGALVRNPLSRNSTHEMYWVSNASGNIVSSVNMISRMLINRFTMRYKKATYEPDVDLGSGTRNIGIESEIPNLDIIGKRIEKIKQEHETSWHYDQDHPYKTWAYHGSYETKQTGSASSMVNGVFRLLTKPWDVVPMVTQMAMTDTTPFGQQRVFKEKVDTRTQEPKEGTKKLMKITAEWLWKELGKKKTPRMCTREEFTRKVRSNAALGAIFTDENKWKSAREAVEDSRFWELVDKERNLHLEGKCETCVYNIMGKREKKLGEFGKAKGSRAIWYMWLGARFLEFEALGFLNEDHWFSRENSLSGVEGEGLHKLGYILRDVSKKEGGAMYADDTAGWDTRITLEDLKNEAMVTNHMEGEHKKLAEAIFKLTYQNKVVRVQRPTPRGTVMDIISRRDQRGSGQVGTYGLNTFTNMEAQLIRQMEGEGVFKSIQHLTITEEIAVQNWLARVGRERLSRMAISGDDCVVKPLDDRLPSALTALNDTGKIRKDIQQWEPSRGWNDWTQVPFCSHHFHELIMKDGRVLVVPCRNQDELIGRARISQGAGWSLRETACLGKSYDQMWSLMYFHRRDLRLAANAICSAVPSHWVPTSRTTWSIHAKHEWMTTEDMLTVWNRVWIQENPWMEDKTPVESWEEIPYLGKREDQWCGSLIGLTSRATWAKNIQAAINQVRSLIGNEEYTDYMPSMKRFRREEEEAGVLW

[7] = biological target: T5, Mitochondrial peptide methionine sulfoxide reductase (Bos taurus, UniProt P54149); assay type: functional;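 also: absorbance read-out, biochemical high-throughput dose-response screen for MsrA inhibitors, confirmatory; recombinant bovine MsrA coupled to E. coli TrxB with NADPH and selenocystamine; potency is for inhibitors of MsrA activity on DMSO substrate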
T5 sequence (P54149 whole entry): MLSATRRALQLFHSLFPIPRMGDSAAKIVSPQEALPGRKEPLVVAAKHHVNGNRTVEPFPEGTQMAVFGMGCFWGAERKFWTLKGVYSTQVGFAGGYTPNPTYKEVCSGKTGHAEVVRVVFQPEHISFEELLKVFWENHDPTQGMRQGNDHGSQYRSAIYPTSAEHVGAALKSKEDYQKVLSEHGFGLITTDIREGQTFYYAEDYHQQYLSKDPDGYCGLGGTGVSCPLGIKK

[8] = biological target: T6, Apoptotic protease-activating factor 1 (Homo sapiens, UniProt O14727); test: SAR analysis of small molecule Activators of Apaf-1 in a Fluorescent assay.; assay type: functional; conditions: read-out: EC50_Mean;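 also: caspase-3 cleavage of fluorogenic Rh110 DEVD substrate downstream of apoptosome activation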
T6 sequence (O14727 whole entry): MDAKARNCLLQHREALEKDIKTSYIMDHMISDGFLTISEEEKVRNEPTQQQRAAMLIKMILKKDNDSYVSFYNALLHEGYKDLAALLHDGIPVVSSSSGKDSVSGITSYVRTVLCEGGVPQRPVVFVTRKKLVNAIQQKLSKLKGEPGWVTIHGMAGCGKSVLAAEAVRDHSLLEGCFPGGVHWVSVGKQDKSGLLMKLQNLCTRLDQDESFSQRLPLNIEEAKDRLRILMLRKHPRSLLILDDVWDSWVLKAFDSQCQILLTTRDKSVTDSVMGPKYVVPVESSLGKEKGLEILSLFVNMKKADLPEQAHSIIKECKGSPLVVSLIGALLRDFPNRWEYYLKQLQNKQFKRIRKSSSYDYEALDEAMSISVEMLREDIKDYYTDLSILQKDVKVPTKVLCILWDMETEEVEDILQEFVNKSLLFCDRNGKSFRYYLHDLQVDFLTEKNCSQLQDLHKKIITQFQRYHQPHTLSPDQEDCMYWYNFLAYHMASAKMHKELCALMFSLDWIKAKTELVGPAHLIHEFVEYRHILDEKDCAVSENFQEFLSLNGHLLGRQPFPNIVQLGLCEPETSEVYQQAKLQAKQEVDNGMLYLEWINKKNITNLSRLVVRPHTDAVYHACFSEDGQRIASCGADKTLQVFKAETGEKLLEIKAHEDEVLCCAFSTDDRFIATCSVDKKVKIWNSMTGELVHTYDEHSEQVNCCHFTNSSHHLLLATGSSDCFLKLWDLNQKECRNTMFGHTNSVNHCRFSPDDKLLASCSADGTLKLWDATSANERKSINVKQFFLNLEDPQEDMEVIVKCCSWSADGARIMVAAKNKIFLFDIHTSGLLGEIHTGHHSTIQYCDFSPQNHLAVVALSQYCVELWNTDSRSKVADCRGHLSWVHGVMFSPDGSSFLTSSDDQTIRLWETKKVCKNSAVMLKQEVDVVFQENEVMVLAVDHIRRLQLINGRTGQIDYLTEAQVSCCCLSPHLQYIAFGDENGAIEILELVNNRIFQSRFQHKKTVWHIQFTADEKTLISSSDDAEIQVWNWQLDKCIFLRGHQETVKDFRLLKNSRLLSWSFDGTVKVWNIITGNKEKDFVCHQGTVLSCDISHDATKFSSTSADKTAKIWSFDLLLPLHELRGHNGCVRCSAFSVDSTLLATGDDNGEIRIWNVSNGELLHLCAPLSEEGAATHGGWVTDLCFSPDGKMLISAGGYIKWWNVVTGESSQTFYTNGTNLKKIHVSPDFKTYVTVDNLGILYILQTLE

P388/ADR = test: cells; assay type: functional; conditions: Mus musculus
P388 = test: cells; assay type: functional; conditions: Mus musculus
[9] = biological target: Photoreceptor-specific nuclear receptor (Homo sapiens, UniProt Q9Y5X4); assay type: functional, cell-based;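 also: CHO-S cells with Gal4-NCOR and VP16-NR2E3 two-hybrid luciferase reporter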
Sequence of Photoreceptor-specific nuclear receptor (Q9Y5X4 whole entry, the tested form may be a part): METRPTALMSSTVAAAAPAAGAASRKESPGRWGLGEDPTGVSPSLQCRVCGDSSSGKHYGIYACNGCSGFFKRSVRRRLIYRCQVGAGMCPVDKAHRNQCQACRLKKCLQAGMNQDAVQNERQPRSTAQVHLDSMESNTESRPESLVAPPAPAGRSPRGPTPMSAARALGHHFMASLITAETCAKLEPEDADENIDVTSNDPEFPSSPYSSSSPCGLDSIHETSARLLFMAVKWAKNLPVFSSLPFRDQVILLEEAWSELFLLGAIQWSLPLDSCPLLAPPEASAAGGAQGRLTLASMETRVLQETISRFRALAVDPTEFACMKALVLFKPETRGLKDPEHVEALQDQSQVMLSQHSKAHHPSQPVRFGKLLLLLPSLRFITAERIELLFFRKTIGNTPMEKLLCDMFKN

SN12K1 = test: cells; assay type: functional; conditions: Homo sapiens
[10] = biological target: T7, DNA repair protein RAD52 homolog (Homo sapiens, UniProt P43351); assay type: functional, biochemical
T7 sequence (P43351 whole entry): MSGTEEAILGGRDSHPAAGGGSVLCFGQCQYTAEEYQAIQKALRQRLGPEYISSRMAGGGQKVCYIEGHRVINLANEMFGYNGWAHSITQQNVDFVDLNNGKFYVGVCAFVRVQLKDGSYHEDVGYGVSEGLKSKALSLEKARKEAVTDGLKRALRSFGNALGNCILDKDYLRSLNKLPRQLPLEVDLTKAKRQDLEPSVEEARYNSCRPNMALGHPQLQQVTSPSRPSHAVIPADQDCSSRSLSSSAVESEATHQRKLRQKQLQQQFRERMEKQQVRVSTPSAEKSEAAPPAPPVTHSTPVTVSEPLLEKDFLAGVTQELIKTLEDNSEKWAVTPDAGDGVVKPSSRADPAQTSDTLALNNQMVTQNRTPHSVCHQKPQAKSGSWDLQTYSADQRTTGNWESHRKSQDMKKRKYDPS

[11] = HIV-1 AD8 envelope cell-cell fusion blockers – cherry-pick, dose response (AID 652062); assay type: functional, cell-based;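 also: luciferase signal from cell-cell fusion driven by HIV-1 clade B AD8 Env; potency is for inhibitors of fusion seen as a drop in luminescence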
[12] = blockers of HIV-1 envelope-mediated cell-cell fusion – cherry-pick, dose response (AID 652057); assay type: functional, cell-based
[13] = blockers of HIV-1 ZM109 envelope-driven cell-cell fusion – HeLa effector, CEM target cells, luciferase, cherry-pick, dose response (AID 652058); assay type: functional, cell-based;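 also: luciferase signal from HIV-1 Env mediated cell-cell fusion of effector and target cells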
[14] = off-target signal loss in HeLa-CEM21 co-culture – HeLa F-luc CTL cells, cherry-picked, counter-screen for HIV-1 Env fusion inhibitor project, dose response (AID 652040); assay type: functional, cell-based;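 also: potency for signal decrease marking cytotoxic or nonspecific inhibition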
[15] = viability loss in CEM21 cells – cell-based, CellTiter-Glo luminescence, cherry-picked, cytotoxicity control for viral fusion inhibitor project, dose response (AID 652042); assay type: functional;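 also: potency for signal decrease meaning cytotoxicity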
[16] = Luminescence Cell-Based Dose Response HTS to Identify Inhibitors of 5'UTR Stem-Loop Driven Prion Protein mRNA Translation in H4 Neuroglioblastoma Cells. [Related pubchem assays: 1827 (Project Summary), 1813 (Primary HTS)]; assay type: functional
[17] = luciferase reporter signal suppression in cells – H4 neuroglioma cells, luminescence, dose response (AID 1990); assay type: functional, cell-based
[18] = alpha-synuclein stem-loop luciferase translation blockers – H4 neuroglioma cells, luminescence, confirmation (AID 1988); assay type: functional, cell-based

COc1ccc(NC(=S)N2CCC(N(C)CC3CCCO3)CC2)cc1Cl (stereo unspecified)
IC50 [1]: 3.65 µM (active)
IC50 [2]: 1.37 µM (active)
IC50 [3]: 27.2 µM (inactive)

CC(Oc1ccc(S(=O)(=O)N2CCCC2)cc1[N+](=O)[O-])C(=O)NC(C)c1ccccc1 (stereo unspecified)
IC50 [4]: 11.8 µM (inactive)
IC50 [5]: 20.1 µM (inactive)
IC50 (Steroidogenic factor 1): 7.26 µM (active)

NC(=S)N1OC[C@@H]2COc3ccc4ccccc4c3[C@@H]21
IC50 (Interleukin-8): 8.34 µM (active)

Cn1cc(CC(=O)Nc2cccc(C#N)c2)c2ccccc21
IC50 [1]: > 80 µM (inactive)
IC50 [2]: 51.9 µM (inactive)
IC50 [3]: > 80 µM (inactive)

O=C(O)c1ccc(NC2=C/C(=N/S(=O)(=O)c3cccs3)c3ccccc3C2=O)cc1
IC50 [6]: 0.817 µM (active)
IC50 (Genome polyprotein): 58.1 µM (active)
IC50 [7]: 4.82 µM (active)

CC(=O)Nc1ccc(Nc2cc([N+](=O)[O-])cc(Cl)[n+]2[O-])cc1
IC50 [4]: 5.74 µM (active)
IC50 [5]: 35.9 µM (inactive)
IC50 (Steroidogenic factor 1): 1.56 µM (active)

CC(Cc1ccccc1)C(=O)O (stereo unspecified)
EC50 [8]: > 100 µM (inactive)

COc1cc2c(oc(=O)c3cc(C)cc(OC)c32)c2c(C3OC(C)C(O)C(C)(O)C3O)ccc(O)c12 (stereo unspecified)
GI50 (P388/ADR): 0.219 µM (active)
GI50 (P388): 0.171 µM (active)
IC50 [9]: 12.7 µM (inactive)
GI50 (SN12K1): 0.349 µM (active)
AC50 [10]: 18.8 µM (active)

O=C(Cc1ccc(S(=O)(=O)N2CCCC2)s1)Nc1cccc([N+](=O)[O-])c1
IC50 [4]: 13 µM (inactive)
IC50 [5]: 35.9 µM (inactive)
IC50 (Steroidogenic factor 1): 6.79 µM (active)

Cc1csc2c(=O)sc(NC(=O)c3ccco3)nc12
EC50 [8]: > 100 µM (inactive)

CN(C)C(=O)c1cccc(-c2cnc3sc(NCc4ccc5c(c4)OCO5)nn23)c1
AC50 [11]: 4.18 µM (active)
AC50 [12]: 4.47 µM (active)
AC50 [13]: 4.54 µM (active)
AC50 [14]: 3.03 µM (active)
AC50 [15]: 66.1 µM (active)
IC50 (Interleukin-8): 11.8 µM (inactive)

O=[N+]([O-])c1c(Nc2ccccc2O)cc(N2CCOCC2)c2nonc12
EC50 [16]: 30.5 µM (active)
EC50 [17]: 25.1 µM (active)
EC50 [18]: 111 µM (active)
IC50 [7]: 67.7 µM (inactive)
